pIC50: −log10 of the molar value.
Experiments:
[1] = biological target: T1, microsomal triglyceride transfer protein (MTP) (Mesocricetus auratus, UniProt P55158); test: Inhibition of MTP activity (transfer of labelled triglyceride from donor to acceptor particle, SPA); assay type: biochemical; conditions: MTP from golden hamster liver microsomes; [3H]-triolein transfer to LDL-biot; incubation 18-24 hours at 37° C.; read-out: IC50, concentration that allows a 50% inhibition of MTP
T1 construct: The supernatant comprising the soluble MTP is dialysed; from tissue; host or cells: golden hamster liver microsomes, deoxycholate-solubilised
T1 sequence (P55158 19-895): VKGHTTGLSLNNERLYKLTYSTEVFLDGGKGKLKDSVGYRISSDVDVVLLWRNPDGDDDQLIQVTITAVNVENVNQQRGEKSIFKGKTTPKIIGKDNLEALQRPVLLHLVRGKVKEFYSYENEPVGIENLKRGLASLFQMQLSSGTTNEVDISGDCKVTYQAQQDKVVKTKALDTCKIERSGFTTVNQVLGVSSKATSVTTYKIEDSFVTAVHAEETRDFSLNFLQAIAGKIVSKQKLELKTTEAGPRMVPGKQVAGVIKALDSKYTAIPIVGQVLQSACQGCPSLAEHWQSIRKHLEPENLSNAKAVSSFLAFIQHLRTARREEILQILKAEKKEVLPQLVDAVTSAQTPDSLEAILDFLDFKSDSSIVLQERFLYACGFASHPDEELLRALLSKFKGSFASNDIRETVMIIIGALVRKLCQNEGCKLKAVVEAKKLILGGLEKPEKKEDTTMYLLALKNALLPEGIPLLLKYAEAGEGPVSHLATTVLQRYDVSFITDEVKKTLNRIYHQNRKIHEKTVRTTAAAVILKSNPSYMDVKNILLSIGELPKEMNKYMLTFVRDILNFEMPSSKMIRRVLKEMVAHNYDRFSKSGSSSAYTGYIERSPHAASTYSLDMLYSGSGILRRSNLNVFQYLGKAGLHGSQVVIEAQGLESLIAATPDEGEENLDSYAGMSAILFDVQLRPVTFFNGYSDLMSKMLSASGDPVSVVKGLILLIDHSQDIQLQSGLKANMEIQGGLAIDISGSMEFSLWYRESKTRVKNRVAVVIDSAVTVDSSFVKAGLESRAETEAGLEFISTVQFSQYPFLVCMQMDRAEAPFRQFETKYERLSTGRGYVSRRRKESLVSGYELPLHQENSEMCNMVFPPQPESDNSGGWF
Description: Analysis of the Inhibition of MTP Activity
The inhibition of the activity of microsomal triglyceride transfer protein (MTP) was tested by using the following operating protocol.
The inhibition of MTP activity with a compound can be quantified by observing the inhibition of the transfer of a labelled triglyceride, from a donor particle to an acceptor particle, in the presence of MTP. The procedure for the preparation of MTP is based on the method by Wetterau and Zilversmit (Biochem. Biophys. Acta (1986) 875, 610). A few grams of golden hamster liver are taken and then rinsed several times in a 250 mM sucrose solution at 0° C. All the following steps proceed at +4° C. A homogenate at a concentration of 50% in 250 mM sucrose is prepared using a Teflon mill and then centrifuged for 10 minutes at 10 000× g at +4° C. The supernatant is then centrifuged at 105 000× g for 75 minutes at +4° C. The supernatant is discarded and the microsomal pellet is taken up in 3 ml (per g of starting liver) of Tris/HCl 150 mM pH 8.0. 1-ml aliquot fractions are stored at −80° C. until the time of use.
After thawing a fraction of microsomes (1 ml), 12 ml of refrigerated Tris/HCl 50 mM, KCl 50 mM, MgCl2 5 mM pH 7.4 buffers and 1.2 ml of deoxycholate (0.54% in water) are added. After incubation for 30 minutes at +4° C. with gentle agitation, the suspension is centrifuged at 105 000× g for 75 minutes. The supernatant comprising the soluble MTP is dialysed against Tris/HCl 150 mM, NaCl 40 mM, EDTA 1 mM, 0.02% sodium azide pH 7.4 buffer (5 times one litre over 2-3 days). The MTP is stored at +4° C., is stable for at least 30 days and is used in unmodified form in the test.
The donor particles (liposomes) are prepared from 208 μL of L-phosphatidylcholine at a concentration of 10 mg/ml in chloroform, and 480 μL of. [3H]-triolein at a concentration of 0.5 mCi/ml in toluene. After stirring, the solution is evaporated under nitrogen, taken up in 6 ml of Tris/HCl 50 mM, KCl 50 mM, MgCl2 5 mM pH 7.4 buffer and incubated in an ultrasound bath for 30 minutes at room temperature. The liposomes are stored at +4° C. and sonicated again for 10 minutes before each use.
The acceptor particles are biotinylated low density lipoproteins (LDL-biot). These particles are supplied by the company Amersham.
The reaction mixture is prepared in untreated 1/2 well white plates (Corning Costar) by addition, in the following order, of: 5 μL of HEPES 50 mM, NaCl 150 mM, BSA 0.1% (w/v), 0.05% sodium azide (w/v), pH 7.4 buffer; 5 μL of liposomes; 5 μL of LDL-biot; 5 μL of test products in DMSO; 5 μL of MTP. After incubation for 18-24 hours at 37° C., the reaction is stopped by adding 100 μL of Amersham SPA (Scintillation Proximity Assay) beads coupled to streptavidin, and the radioactivity is counted using a Top Count (Packard) machine at least one hour later. The inhibition of the transfer of the triglycerides with a compound is reflected by a reduction in the transferred radioactivity.
The results are expressed in terms of the IC50, i.e. the concentration that allows a 50% inhibition of MTP.

[2] = test system: apo B secretion in HepG2 cells; test: Inhibition of apo B secretion in HepG2 cells (sandwich-ELISA); assay type: cell-based; conditions: 24 hours incubation, culture supernatant tested by ELISA specific for human apo B, read-out: IC50, concentration that produces a 50% inhibition of apo B secretion in the HepG2 cells
Description: Analysis of the Reaction of apo B in the HepG2 Human Cell Line:
The activity of a compound according to the invention can be evaluated by measuring the inhibition of apo B secretion in HepG2 cells.
The HepG2 cells (ECACC—No. 85011430) are used as model in the study of the in vitro hepatic secretion of lipoproteins (Dixon J. and Ginsberg H., J. i Lipid. Res., 1993, 34, 167-179).
The HepG2 cells are cultured in Dulbecco's modified Eagle's medium comprising 10% foetal calf serum (DMEM and FBS-Gibco) in 96-well plates under an atmosphere of 5% carbon dioxide for 24 hours (about 70% confluence).
The test compounds are dissolved at a concentration of 2 or 10 mM in dimethyl sulfoxide (DMSO). Serial dilutions (1:3.16) are made in DMSO and are added (1:200—Robot Multimek Beckman) to the growth medium (200 μL) and then finally incubated for 24 hours in the various wells containing the HepG2cells.
The 24-hour culture supernatant diluted to 1:5 (phosphate-buffered saline: PBS comprising 1% bovine serum albumin) is tested according to a sandwich-ELISA method specific for human apo B.
The results are expressed in terms of IC50, i.e. the concentration that produce a 50% inhibition of apo B secretion in the HepG2 cells.

Compound | pIC50 [1] | pIC50 [2]
CCN(C(=O)c1csc(C2CCN(C(=O)c3ccccc3-c3ccc(C(F)(F)F)cc3)CC2)n1)C(C)C(=O)c1ccccc1 (stereo not shown) [Example 3] | 7.24 | 7.92
C[C@H](C(=O)c1ccccc1)N(C)C(=O)c1csc(C2CCN(C(=O)c3ccccc3-c3ccc(C(F)(F)F)cc3)CC2)n1 [Example 5] | 6.18 | 6.54
CC(C)N(C(=O)c1csc(C2CCN(C(=O)c3ccccc3-c3ccc(C(F)(F)F)cc3)CC2)n1)C(C#N)c1ccccc1 (stereo not shown) [Example 10] | 6.78 | 
CCN(C(=O)c1csc(C2CCN(C(=O)c3ccccc3-c3ccc(C(F)(F)F)cc3)CC2)n1)C(C#N)c1ccccc1 (stereo not shown) [Example 9] | 7.24 | 8.15
CC(C(=O)c1ccccc1)N(C)C(=O)c1csc(C2CCN(C(=O)c3ccccc3-c3ccc(C(F)(F)F)cc3)CC2)n1 (stereo not shown) [Example 4] | 6.14 | 6.51
CCN(C(=O)c1csc(C2CCN(C(=O)c3ccccc3-c3ccc(C(F)(F)F)cc3)CC2)n1)C(C)C(=O)c1cccnc1 (stereo not shown) [Example 6] | 6.41 | 6.54
CCN(C(=O)c1csc(C2CCN(C(=O)c3cccc(C)c3-c3ccc(OC(F)(F)F)cc3)CC2)n1)C(C)C(=O)c1ccccc1 (stereo not shown) [Example 1, 2-[1-(6-Methyl-4’-trifluoromethoxybiphenyl-2-carbonyl)piperid-4-yl]thiazol-4-carbonyl[N-ethyl-N-(1-methyl-2-oxo-2-phenylethyl)]amide] | 7.29 | 7.70

Reference: patent US7674803B2, “Thiazolypiperidine derivatives as MTP inhibitors” (Merck Patent GmbH, priority 2003, dated 2010)
